Source: patent US10919785B2, “Hydraulic conveyor of floating objects provided with a device for sanitising conveying composition, plant provided with such a conveyor and sanitising method” (MAF AGROBOTIC, priority 2016, dated 2021)

Assays:
[1] = Example 3: UV/hydrogen peroxide sanitising of 90 m^3 apple conveying water, six photolysis chambers in series; format: physicochemical
Description: A hydraulic conveyor of a plant for sorting and packaging apples is selected containing a volume of 90 m^3 of water as composition for conveying Ariane, Rosy Glow and Pink Lady apples. A flow rate of conveying composition of 36 m^3/h is established in the external circuit and a flow rate of photoreactive composition of […] is established, the photoreactive composition being an aqueous solution of hydrogen peroxide at an initial concentration of 400 g/l. Under these flow conditions, all of the volume of the conveying composition of the hydraulic conveyor is theoretically treated within 2.5 hours. The composition at the inlet of the sanitising device has an initial hydrogen peroxide proportion in the order of 3 ppm sufficient to allow the decontamination of the composition at the outlet of the sanitising device formed of six photolysis chambers mounted in series, each chamber comprising five fluorescent tubes with an individual power of 200 W.
The results obtained are shown in Table 2 hereinafter in which the concentration values of boscalid from the apples conveyed with the composition to be sanitised at the inlet of the sanitising device (EC) and at the outlet of sanitising device (SC) are given in μg/l. The column SE/EC represents the ratio multiplied by 100 of the boscalid concentration at the outlet of the sixth chamber of the photolysis tank to the boscalid concentration at the inlet of the photolysis tank (EC). The column C/C0 represents the ratio of the boscalid concentration measured at the inlet of the sanitising device over time to the initial boscalid concentration (t=0).

[2] = format: physicochemical; conditions: 250 μg/l
Description: (§1) A semi-industrial pilot device in accordance with one aspect of the invention comprises a tank for recirculating water to be treated of a volume of 1000 l, a circulation pump ensuring a circulation flow of the water to be treated in a sanitising device with a flow rate between 4 m^3 to 8 m^3/h. The sanitising device comprises a photolysis chamber comprising an inlet for water from the recirculation tank and an outlet for sanitised water directed to the recirculation tank. The photolysis chamber is formed of a rigid tubular envelope, of which the external wall is opaque to light and forming an inner space suitable for receiving five fluorescent tubes with a longitudinal axis extending in parallel with the longitudinal axis of the rigid tubular envelope. The inner volume of the decontamination reactor is in the order of […].
The five fluorescent tubes are tubes of 200 W emitting light at a wavelength of 254 nm and arranged longitudinally in the tubular envelope at the five points of a regular pentagon and in contact with the water to be treated flowing in the photolysis chamber. In this configuration of the sanitising device, the water to be sanitised flowing in contact with the five fluorescent tubes is subjected to substantially homogeneous illumination in the order of 500 mJ/cm^2 for a circulation flow rate of water to be sanitised in the order of 6 m^3/h. The semi-industrial pilot device also comprises a tank for storing an aqueous solution of hydrogen peroxide (H2O2) provided with a pump for distributing said solution in the circulation flow of water to be sanitised issuing into the circuit of water to be sanitised upstream of and in proximity to the photolysis chamber. The concentration of the hydrogen peroxide in the aqueous solution of hydrogen peroxide is between 2 m g/l and 13 mg/l. The set-point flow rate of the pump for distributing solution of H2O2 is kept at 4 l/h.
The flow rate of the recycling pump is 6 m^3/h and the initial boscalid concentration in the recirculation tank is 250 μg/l. The 5 lamps of the sanitising device are switched on. […]

[3] = Example 6: pilot device, degradation of different amounts of boscalid (FIG. 7); format: physicochemical; conditions: boscalid 25, 80 and 200 μg/l; hydrogen peroxide 2 mg/l continuously added; 6 m^3/h
Description: as §1
The five fluorescent tubes are tubes of 200 W emitting light at a wavelength of 254 nm and arranged longitudinally in the tubular envelope at the five points of a regular pentagon and in contact with the water to be treated flowing in the photolysis chamber. In this configuration of the sanitising device, the water to be sanitised flowing in contact with the five fluorescent tubes is subjected to substantially homogeneous illumination in the order of 500 mJ/cm^2 for a circulation flow rate of water to be sanitised in the order of 6 m^3/h. […]

O=C(Nc1ccccc1-c1ccc(Cl)cc1)c1cccnc1Cl [boscalid]
boscalid concentration at the inlet of the sanitising device (EC) ([1]; time 0 hours): 2.83 µg/L
percent boscalid removed between inlet and outlet of the sanitising device (100 x (1 - SC/EC)) ([1]; time 0 hours): 100%
boscalid concentration at the inlet of the sanitising device (EC) ([1]; time 4 hours): 4.76 µg/L
boscalid concentration at the outlet of the sanitising device (SC) ([1]; time 4 hours): 0.065 µg/L
percent boscalid removed between inlet and outlet of the sanitising device (100 x (1 - SC/EC)) ([1]; time 4 hours): 98.6%
boscalid concentration at the inlet of the sanitising device (EC) ([1]; time 7 hours): 2.84 µg/L
boscalid concentration at the outlet of the sanitising device (SC) ([1]; time 7 hours): 0.206 µg/L
percent boscalid removed between inlet and outlet of the sanitising device (100 x (1 - SC/EC)) ([1]; time 7 hours): 92.8%
C/C0 (inlet boscalid concentration over initial concentration) ([1]; time 7.1 hours): 1
boscalid concentration at the inlet of the sanitising device (EC) ([1]; time 7.1 hours): 4.19 µg/L
percent boscalid removed between inlet and outlet of the sanitising device (100 x (1 - SC/EC)) ([1]; time 7.1 hours): 100%
C/C0 (inlet boscalid concentration over initial concentration) ([1]; time 10.5 hours): 0.41
boscalid concentration at the inlet of the sanitising device (EC) ([1]; time 10.5 hours): 1.73 µg/L
boscalid concentration at the outlet of the sanitising device (SC) ([1]; time 10.5 hours): 0.062 µg/L
percent boscalid removed between inlet and outlet of the sanitising device (100 x (1 - SC/EC)) ([1]; time 10.5 hours): 96.4%
C/C0 (inlet boscalid concentration over initial concentration) ([1]; time 12.5 hours): 0.32
boscalid concentration at the inlet of the sanitising device (EC) ([1]; time 12.5 hours): 1.35 µg/L
percent boscalid removed between inlet and outlet of the sanitising device (100 x (1 - SC/EC)) ([1]; time 12.5 hours): 100%
C/C0 (inlet boscalid concentration over initial concentration) ([1]; time 14.75 hours): 0.41
boscalid concentration at the inlet of the sanitising device (EC) ([1]; time 14.75 hours): 1.71 µg/L
boscalid concentration at the outlet of the sanitising device (SC) ([1]; time 14.75 hours): 0.058 µg/L
percent boscalid removed between inlet and outlet of the sanitising device (100 x (1 - SC/EC)) ([1]; time 14.75 hours): 96.6%
C/C0 (inlet boscalid concentration over initial concentration) ([1]; time 17.25 hours): 0.28
boscalid concentration at the inlet of the sanitising device (EC) ([1]; time 17.25 hours): 1.18 µg/L
boscalid concentration at the outlet of the sanitising device (SC) ([1]; time 17.25 hours): 0.040 µg/L
percent boscalid removed between inlet and outlet of the sanitising device (100 x (1 - SC/EC)) ([1]; time 17.25 hours): 96.6%
C/C0 (inlet boscalid concentration over initial concentration) ([1]; time 19.25 hours): 0.45
boscalid concentration at the inlet of the sanitising device (EC) ([1]; time 19.25 hours): 1.88 µg/L
percent boscalid removed between inlet and outlet of the sanitising device (100 x (1 - SC/EC)) ([1]; time 19.25 hours): 100%
C/C0 (inlet boscalid concentration over initial concentration) ([1]; time 22.75 hours): 0.25
boscalid concentration at the inlet of the sanitising device (EC) ([1]; time 22.75 hours): 1.07 µg/L
boscalid concentration at the outlet of the sanitising device (SC) ([1]; time 22.75 hours): 0.064 µg/L
percent boscalid removed between inlet and outlet of the sanitising device (100 x (1 - SC/EC)) ([1]; time 22.75 hours): 94%
C/C0 (inlet boscalid concentration over initial concentration) ([1]; time 24.75 hours): 0.15
boscalid concentration at the inlet of the sanitising device (EC) ([1]; time 24.75 hours): 0.64 µg/L
boscalid concentration at the outlet of the sanitising device (SC) ([1]; time 24.75 hours): 0.057 µg/L
percent boscalid removed between inlet and outlet of the sanitising device (100 x (1 - SC/EC)) ([1]; time 24.75 hours): 91.2%
C/C0 (inlet boscalid concentration over initial concentration) ([1]; time 28.75 hours): 0.16
boscalid concentration at the inlet of the sanitising device (EC) ([1]; time 28.75 hours): 0.66 µg/L
boscalid concentration at the outlet of the sanitising device (SC) ([1]; time 28.75 hours): 0.039 µg/L
percent boscalid removed between inlet and outlet of the sanitising device (100 x (1 - SC/EC)) ([1]; time 28.75 hours): 94%
C/C0 (inlet boscalid concentration over initial concentration) ([1]; time 29.75 hours): 0.22
boscalid concentration at the inlet of the sanitising device (EC) ([1]; time 29.75 hours): 0.93 µg/L
percent boscalid removed between inlet and outlet of the sanitising device (100 x (1 - SC/EC)) ([1]; time 29.75 hours): 100%
C/C0 (inlet boscalid concentration over initial concentration) ([1]; time 32.25 hours): 0.19
boscalid concentration at the inlet of the sanitising device (EC) ([1]; time 32.25 hours): 0.79 µg/L
boscalid concentration at the outlet of the sanitising device (SC) ([1]; time 32.25 hours): 0.040 µg/L
percent boscalid removed between inlet and outlet of the sanitising device (100 x (1 - SC/EC)) ([1]; time 32.25 hours): 95%
C/C0 (inlet boscalid concentration over initial concentration) ([1]; time 34.75 hours): 0.17
boscalid concentration at the inlet of the sanitising device (EC) ([1]; time 34.75 hours): 0.73 µg/L
boscalid concentration at the outlet of the sanitising device (SC) ([1]; time 34.75 hours): 0.043 µg/L
percent boscalid removed between inlet and outlet of the sanitising device (100 x (1 - SC/EC)) ([1]; time 34.75 hours): 94.1%
final rate of degradation [2]: 95%
initial degradation [2]: equivalent to that obtained with the addition of hydrogen peroxide at the concentration of 13 mg/l
degradation of the initial boscalid ([2]; 1 h): 10%
residual amount of boscalid [3]: less than 80%
